Measurements as given in ChEMBL document CHEMBL1909046, “DrugMatrix in vitro pharmacology data”.

Columns and labels:
[1] = biological target: Receptor tyrosine-protein kinase erbB-2 (Homo sapiens, UniProt P04626); type: cell-based; details: insect cells;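 further: inhibition of HER2 kinase enzyme activity, measured with Poly(Glu:Tyr) as the phosphorylation substrate; in other assays of this panel Not Active means under 50% inhibition at 10 µM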
[2] = biological target: T1, 5-hydroxytryptamine receptor 1A (Rattus norvegicus, UniProt P19327); type: cell membranes, CHO-K1, Membrane; further: in other assays of this panel Not Active means under 50% inhibition at 10 µM
T1 sequence (P19327 whole entry): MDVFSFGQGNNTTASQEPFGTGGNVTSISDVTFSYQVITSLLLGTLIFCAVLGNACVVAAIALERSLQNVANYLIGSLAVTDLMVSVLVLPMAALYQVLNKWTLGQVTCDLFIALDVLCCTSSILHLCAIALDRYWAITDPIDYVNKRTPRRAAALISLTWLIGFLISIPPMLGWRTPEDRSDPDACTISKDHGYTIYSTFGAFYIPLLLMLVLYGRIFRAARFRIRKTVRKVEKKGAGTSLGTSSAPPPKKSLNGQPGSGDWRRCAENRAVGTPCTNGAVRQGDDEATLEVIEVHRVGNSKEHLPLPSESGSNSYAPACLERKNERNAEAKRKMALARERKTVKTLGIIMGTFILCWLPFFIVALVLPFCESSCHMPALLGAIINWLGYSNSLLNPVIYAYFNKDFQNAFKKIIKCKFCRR

[3] = biological target: Matrix metalloproteinase-9 (Homo sapiens, UniProt P14780); type: cell-based;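 further: inhibition of isolated MMP-9 enzyme activity toward a synthetic peptide substrate, from the DrugMatrix protease screening panel; in other assays of this panel Not Active means under 50% inhibition at 10 µM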
Cathepsin G = biological target: T2, Cathepsin G (Homo sapiens, UniProt P08311); experiment: biochemical; type: tissue-based, Neutrophil; details: neutrophil;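 further: inhibition of Cathepsin G enzyme activity, tested on an AMC-conjugated peptide substrate; in other assays of this panel Not Active means under 50% inhibition at 10 µM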
T2 sequence (P08311 whole entry): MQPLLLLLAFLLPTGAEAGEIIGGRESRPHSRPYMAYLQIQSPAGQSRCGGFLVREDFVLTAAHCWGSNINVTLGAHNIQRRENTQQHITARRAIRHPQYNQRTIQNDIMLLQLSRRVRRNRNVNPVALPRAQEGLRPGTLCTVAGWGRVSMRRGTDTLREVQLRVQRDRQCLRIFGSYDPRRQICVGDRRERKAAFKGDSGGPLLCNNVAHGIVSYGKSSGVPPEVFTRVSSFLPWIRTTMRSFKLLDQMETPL

Cytochrome P450 1A2 = biological target: T3, Cytochrome P450 1A2 (Homo sapiens, UniProt P05177); details: bti-tn-5b1-4; further: in other assays of this panel Not Active means under 50% inhibition at 10 µM
T3 sequence (P05177 whole entry): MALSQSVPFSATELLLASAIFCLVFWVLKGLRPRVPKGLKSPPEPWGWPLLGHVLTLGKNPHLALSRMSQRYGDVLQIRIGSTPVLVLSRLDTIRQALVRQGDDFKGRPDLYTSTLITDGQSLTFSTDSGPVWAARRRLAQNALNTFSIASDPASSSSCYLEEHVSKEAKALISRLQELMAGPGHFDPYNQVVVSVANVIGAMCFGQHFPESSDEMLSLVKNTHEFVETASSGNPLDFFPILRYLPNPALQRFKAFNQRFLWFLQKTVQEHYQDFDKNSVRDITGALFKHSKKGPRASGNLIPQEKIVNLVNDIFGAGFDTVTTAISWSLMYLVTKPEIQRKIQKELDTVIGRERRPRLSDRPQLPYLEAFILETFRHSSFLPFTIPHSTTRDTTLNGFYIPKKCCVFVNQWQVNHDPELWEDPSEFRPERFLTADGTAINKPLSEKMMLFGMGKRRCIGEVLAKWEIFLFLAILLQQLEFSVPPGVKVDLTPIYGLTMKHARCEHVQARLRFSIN

Insulin receptor = Insulin receptor (Rattus norvegicus, UniProt P15127); type: cell membranes, Wistar, Liver, Membrane; further: in other assays of this panel Not Active means under 50% inhibition at 10 µM
[4] = biological target: T4, Neuropeptide Y receptor type 1 (Homo sapiens, UniProt P25929); type: cell membranes, Membrane; details: sk-n-mc; further: in other assays of this panel Not Active means under 50% inhibition at 10 µM
T4 sequence (P25929 whole entry): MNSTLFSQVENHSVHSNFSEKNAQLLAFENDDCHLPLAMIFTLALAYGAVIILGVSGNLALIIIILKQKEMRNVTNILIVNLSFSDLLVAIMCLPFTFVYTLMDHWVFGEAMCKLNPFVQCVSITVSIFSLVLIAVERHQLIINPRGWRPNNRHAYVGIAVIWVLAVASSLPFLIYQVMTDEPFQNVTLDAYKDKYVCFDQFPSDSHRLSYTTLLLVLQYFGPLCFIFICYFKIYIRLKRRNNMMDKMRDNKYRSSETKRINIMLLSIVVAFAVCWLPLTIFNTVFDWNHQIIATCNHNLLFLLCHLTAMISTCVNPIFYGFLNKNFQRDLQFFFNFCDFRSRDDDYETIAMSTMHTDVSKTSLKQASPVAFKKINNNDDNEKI

[5] = biological target: Tyrosine-protein kinase Fyn (Homo sapiens, UniProt P06241); experiment: biochemical; type: cell-based, Insect cells; details: insect cells
[6] = biological target: Beta-1 adrenergic receptor (Homo sapiens, UniProt P08588); experiment: DRUGMATRIX: Adrenergic beta1 radioligand binding (ligand: [125I] Cyanopindolol); type: cell membranes, CHO-K1, Membrane; details: cho-k1; Not Active = under 50% inhibition at 10 µM
Chain of Beta-1 adrenergic receptor (P08588 whole entry): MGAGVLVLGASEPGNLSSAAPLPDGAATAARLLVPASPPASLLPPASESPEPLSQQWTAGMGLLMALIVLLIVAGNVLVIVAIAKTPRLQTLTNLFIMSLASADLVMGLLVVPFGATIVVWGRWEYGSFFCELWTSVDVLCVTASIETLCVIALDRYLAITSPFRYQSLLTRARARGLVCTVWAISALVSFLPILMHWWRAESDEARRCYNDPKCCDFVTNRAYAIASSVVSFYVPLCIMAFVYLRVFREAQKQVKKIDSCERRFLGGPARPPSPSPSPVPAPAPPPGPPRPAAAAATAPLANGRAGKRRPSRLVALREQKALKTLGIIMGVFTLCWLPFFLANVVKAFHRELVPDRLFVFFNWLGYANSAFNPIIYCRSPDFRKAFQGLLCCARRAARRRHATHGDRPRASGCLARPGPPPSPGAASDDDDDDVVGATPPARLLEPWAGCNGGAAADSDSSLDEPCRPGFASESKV

Chain of Insulin receptor (P15127 27-759 limits assumed): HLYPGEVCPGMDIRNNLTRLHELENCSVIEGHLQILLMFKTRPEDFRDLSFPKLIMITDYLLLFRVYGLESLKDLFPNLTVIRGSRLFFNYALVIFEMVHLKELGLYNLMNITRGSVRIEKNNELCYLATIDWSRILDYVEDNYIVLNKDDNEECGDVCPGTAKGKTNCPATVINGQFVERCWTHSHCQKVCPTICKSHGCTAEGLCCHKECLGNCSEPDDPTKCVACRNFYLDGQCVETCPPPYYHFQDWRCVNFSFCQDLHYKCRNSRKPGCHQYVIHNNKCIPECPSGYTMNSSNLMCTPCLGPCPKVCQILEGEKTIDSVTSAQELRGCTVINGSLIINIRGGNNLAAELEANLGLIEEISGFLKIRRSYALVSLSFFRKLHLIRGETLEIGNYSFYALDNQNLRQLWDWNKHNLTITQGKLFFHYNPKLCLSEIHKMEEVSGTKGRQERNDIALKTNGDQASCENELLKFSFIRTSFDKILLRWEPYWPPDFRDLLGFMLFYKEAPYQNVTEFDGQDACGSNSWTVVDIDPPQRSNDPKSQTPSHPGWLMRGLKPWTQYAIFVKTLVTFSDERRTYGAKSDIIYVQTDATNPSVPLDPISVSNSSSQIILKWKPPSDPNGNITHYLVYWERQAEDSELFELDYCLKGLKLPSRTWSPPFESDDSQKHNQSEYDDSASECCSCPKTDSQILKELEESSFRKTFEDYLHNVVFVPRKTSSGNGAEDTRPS
Chain of Insulin receptor (P15127 764-1383 limits assumed): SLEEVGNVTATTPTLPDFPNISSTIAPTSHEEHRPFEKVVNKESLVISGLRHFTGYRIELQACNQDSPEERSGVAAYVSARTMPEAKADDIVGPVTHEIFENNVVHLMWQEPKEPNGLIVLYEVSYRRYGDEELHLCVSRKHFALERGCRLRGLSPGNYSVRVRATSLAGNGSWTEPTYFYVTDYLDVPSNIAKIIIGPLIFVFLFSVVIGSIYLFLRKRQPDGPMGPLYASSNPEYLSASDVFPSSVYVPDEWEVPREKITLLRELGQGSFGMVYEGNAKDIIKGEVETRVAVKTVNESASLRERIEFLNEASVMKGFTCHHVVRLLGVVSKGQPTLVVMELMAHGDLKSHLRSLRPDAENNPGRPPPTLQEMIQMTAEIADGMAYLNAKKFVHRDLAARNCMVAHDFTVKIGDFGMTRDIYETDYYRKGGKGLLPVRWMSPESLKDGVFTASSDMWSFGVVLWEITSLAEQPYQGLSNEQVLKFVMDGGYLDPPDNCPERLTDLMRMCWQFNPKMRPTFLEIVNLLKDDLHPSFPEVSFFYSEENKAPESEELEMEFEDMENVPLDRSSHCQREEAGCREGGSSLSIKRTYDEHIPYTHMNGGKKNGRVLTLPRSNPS
Chain of Tyrosine-protein kinase Fyn (P06241 whole entry): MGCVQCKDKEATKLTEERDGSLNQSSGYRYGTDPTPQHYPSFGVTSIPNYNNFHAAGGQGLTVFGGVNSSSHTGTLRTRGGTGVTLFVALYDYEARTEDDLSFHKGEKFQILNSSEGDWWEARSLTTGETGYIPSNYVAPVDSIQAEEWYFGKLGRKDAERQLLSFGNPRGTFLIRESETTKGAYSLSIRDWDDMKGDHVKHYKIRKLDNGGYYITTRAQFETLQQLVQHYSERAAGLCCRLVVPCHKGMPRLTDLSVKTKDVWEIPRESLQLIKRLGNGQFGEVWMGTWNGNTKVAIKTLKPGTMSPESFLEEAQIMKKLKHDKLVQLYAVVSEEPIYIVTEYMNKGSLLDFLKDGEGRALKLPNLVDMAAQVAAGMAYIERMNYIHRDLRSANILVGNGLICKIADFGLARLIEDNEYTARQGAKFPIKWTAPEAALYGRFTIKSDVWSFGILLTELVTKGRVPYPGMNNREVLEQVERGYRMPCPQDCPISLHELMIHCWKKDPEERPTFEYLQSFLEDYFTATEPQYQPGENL
Chain of Matrix metalloproteinase-9 (P14780 whole entry): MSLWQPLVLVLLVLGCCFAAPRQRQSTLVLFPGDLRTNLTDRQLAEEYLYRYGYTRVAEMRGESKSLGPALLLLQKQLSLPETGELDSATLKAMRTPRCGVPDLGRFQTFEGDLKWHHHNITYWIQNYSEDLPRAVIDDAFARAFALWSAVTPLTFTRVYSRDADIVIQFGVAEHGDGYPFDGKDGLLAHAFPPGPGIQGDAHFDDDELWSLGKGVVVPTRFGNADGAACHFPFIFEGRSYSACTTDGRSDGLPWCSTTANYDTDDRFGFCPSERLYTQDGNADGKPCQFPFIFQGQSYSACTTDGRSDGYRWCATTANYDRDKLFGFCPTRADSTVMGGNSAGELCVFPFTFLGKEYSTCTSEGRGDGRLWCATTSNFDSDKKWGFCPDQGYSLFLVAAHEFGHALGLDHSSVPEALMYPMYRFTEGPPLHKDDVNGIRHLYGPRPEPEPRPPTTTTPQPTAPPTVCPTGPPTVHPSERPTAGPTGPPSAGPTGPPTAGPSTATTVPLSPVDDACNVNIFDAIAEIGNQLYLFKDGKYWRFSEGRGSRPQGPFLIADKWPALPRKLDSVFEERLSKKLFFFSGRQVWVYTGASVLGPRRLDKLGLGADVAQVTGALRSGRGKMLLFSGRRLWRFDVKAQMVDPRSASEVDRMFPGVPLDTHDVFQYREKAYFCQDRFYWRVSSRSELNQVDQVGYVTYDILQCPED

COC(=O)C[C@](O)(CCC(C)(C)O)C(=O)O[C@@H]1C(OC)=C[C@]23CCCN2CCc2cc4c(cc2[C@H]13)OCO4 [HARRINGTONINE]
IC50 [1]: Not Active
IC50 ([2]; cho-k1): Not Active
IC50 [3]: Not Active
IC50 (Cathepsin G): Not Active
IC50 (Cytochrome P450 1A2): Not Active
Ki (Cytochrome P450 1A2): Not Active
IC50 (Insulin receptor): Not Active
IC50 [4]: Not Active
IC50 [5]: Not Active
IC50 [6]: Not Active

CC(C)(c1ccc(O)cc1)c1ccc(O)cc1 [BISPHENOL A]
IC50 [1]: Not Active
IC50 ([2]; cho-k1): Not Active
IC50 [3]: Not Active
IC50 (Cathepsin G): Not Active
IC50 (Cytochrome P450 1A2): Not Active
Ki (Cytochrome P450 1A2): Not Active
IC50 (Insulin receptor): Not Active
IC50 [4]: Not Active
IC50 [5]: Not Active
IC50 [6]: Not Active

C=CCO [ALLYL ALCOHOL]
IC50 [1]: Not Active
IC50 ([2]; cho-k1): Not Active
IC50 [3]: Not Active
IC50 (Cathepsin G): Not Active
IC50 (Cytochrome P450 1A2): Not Active
Ki (Cytochrome P450 1A2): Not Active
IC50 (Insulin receptor): Not Active
IC50 [4]: Not Active
IC50 [5]: Not Active
IC50 [6]: Not Active

C[C@]12CC[C@@H](O)C[C@@H]1CC[C@@H]1[C@@H]2CC[C@]2(C)C(=O)CC[C@@H]12 [ANDROSTERONE]
IC50 [1]: Not Active
IC50 ([2]; cho-k1): Not Active
Ki [3]: Not Active
IC50 (Cathepsin G): Not Active
IC50 (Cytochrome P450 1A2): Not Active
Ki (Cytochrome P450 1A2): Not Active
IC50 (Insulin receptor): Not Active
IC50 [4]: Not Active
IC50 [5]: Not Active
IC50 [6]: Not Active

COc1ccc(Cl)cc1C(=O)NCCc1ccc(S(=O)(=O)NC(=O)NC2CCCCC2)cc1 [GLYBURIDE]
IC50 [1]: Not Active
IC50 ([2]; cho-k1): Not Active
IC50 [3]: Not Active
IC50 (Cathepsin G): Not Active
IC50 (Cytochrome P450 1A2): Not Active
Ki (Cytochrome P450 1A2): Not Active
IC50 (Insulin receptor): Not Active
IC50 [4]: Not Active
IC50 [5]: Not Active
IC50 [6]: Not Active

CC(CN1c2ccccc2Sc2ccccc21)N(C)C (centres undefined) [PROMETHAZINE]
IC50 [1]: Not Active
IC50 ([2]; read-out: IC50): 2600 nM
Ki ([2]; read-out: Ki): 1480 nM
IC50 [3]: Not Active
IC50 (Cathepsin G): Not Active
IC50 (Cytochrome P450 1A2): Not Active
Ki (Cytochrome P450 1A2): Not Active
IC50 (Insulin receptor): Not Active
IC50 [4]: Not Active
IC50 [5]: Not Active
IC50 [6]: Not Active

C[N+](C)(C)CCOP(=O)([O-])OC[C@H](O)CO
IC50 [1]: Not Active
IC50 ([2]; cho-k1): Not Active
IC50 [3]: Not Active
IC50 (Cathepsin G): Not Active
IC50 (Cytochrome P450 1A2): Not Active
Ki (Cytochrome P450 1A2): Not Active
IC50 (Insulin receptor): Not Active
IC50 [4]: Not Active
IC50 [5]: Not Active
IC50 [6]: Not Active

NCC(CC(=O)O)c1ccc(Cl)cc1 (centres undefined) [BACLOFEN]
IC50 [1]: Not Active
IC50 ([2]; cho-k1): Not Active
IC50 [3]: Not Active
IC50 (Cathepsin G): Not Active
IC50 (Cytochrome P450 1A2): Not Active
Ki (Cytochrome P450 1A2): Not Active
IC50 (Insulin receptor): Not Active
IC50 [4]: Not Active
IC50 [5]: Not Active
IC50 [6]: Not Active

CC12CCC(CC1=O)C2(C)C (centres undefined) [CAMPHOR]
IC50 [1]: Not Active
IC50 ([2]; cho-k1): Not Active
IC50 [3]: Not Active
IC50 (Cathepsin G): Not Active
IC50 (Cytochrome P450 1A2): Not Active
Ki (Cytochrome P450 1A2): Not Active
IC50 (Insulin receptor): Not Active
IC50 [4]: Not Active
IC50 [5]: Not Active
IC50 [6]: Not Active

POVIDONE
IC50 [1]: Not Active
Ki [1]: Not Active
IC50 ([2]; cho-k1): Not Active
Ki ([2]; cho-k1): Not Active
IC50 [3]: Not Active
Ki [3]: Not Active
IC50 (Cathepsin G): Not Active
Ki (Cathepsin G): Not Active
IC50 (Cytochrome P450 1A2): Not Active
Ki (Cytochrome P450 1A2): Not Active
IC50 (Insulin receptor): Not Active
Ki (Insulin receptor): Not Active
IC50 [4]: Not Active
Ki [4]: Not Active
IC50 [5]: Not Active
Ki [5]: Not Active
IC50 [6]: Not Active
Ki [6]: Not Active

CN(Cc1cc(Br)cc(Br)c1N)C1CCCCC1 [BROMHEXINE]
IC50 [1]: Not Active
IC50 ([2]; cho-k1): Not Active
IC50 [3]: Not Active
IC50 (Cathepsin G): Not Active
IC50 (Cytochrome P450 1A2): Not Active
Ki (Cytochrome P450 1A2): Not Active
IC50 (Insulin receptor): Not Active
IC50 [4]: Not Active
IC50 [5]: Not Active
IC50 [6]: Not Active

Cc1ccnc2c1NC(=O)c1cccnc1N2C1CC1 [NEVIRAPINE]
IC50 [1]: Not Active
IC50 ([2]; cho-k1): Not Active
IC50 [3]: Not Active
IC50 (Cathepsin G): Not Active
IC50 (Cytochrome P450 1A2): Not Active
Ki (Cytochrome P450 1A2): Not Active
IC50 (Insulin receptor): Not Active
IC50 [4]: Not Active
IC50 [5]: Not Active
IC50 [6]: Not Active
